Legend:
[1] = test system: ENR+CD organoids (ISC to Paneth cell differentiation); assay: Primary screen: basal (non-stimulated) lysozyme secretion LYZ.NS, 2.5-D 384-well ENR+CD organoid differentiation; format: cell-based, mouse
Text: (§1) High-throughput screening.

ENR+CD organoids = assay: Primary screen: ATP (CellTiter-Glo 3D, CTG) cell number/viability, 2.5-D 384-well ENR+CD organoids;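 also: compounds given at plating and again on day 3 over a 6-day differentiation from ENR+CV stem-cell-enriched precursors, ATP measured on day 6, plate median as control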
[2] = test system: ENR+CD organoids (ISC to Paneth cell differentiation); assay: Primary screen: CCh-stimulated lysozyme secretion LYZ.S, 2.5-D 384-well ENR+CD organoid differentiation; format: cell-based, mouse; conditions: primary screen
Text: as §1

[3] = primary screen, standard z score, dose 0.08 uM
[4] = primary screen, standard z score, dose 0.40 uM
[5] = primary screen, standard z score, dose 2.00 uM
[6] = primary screen, standard z score, dose 10.00 uM
[7] = primary screen, dose 0.08 uM, standard z score
[8] = primary screen, dose 0.40 uM, standard z score
[9] = primary screen, dose 2.00 uM, standard z score
[10] = primary screen, dose 10.00 uM, standard z score
[11] = primary screen; dose 0.08 uM; FC vs plate median
[12] = primary screen; dose 0.40 uM; FC vs plate median
[13] = primary screen; dose 2.00 uM; FC vs plate median
[14] = primary screen; dose 10.00 uM; FC vs plate median
[15] = dose 0.40 uM, FC vs plate median
[16] = dose 2.00 uM, FC vs plate median
[17] = dose 10.00 uM, FC vs plate median
[18] = primary screen, dose 0.08 uM, FC relative to plate median

| SMILES | Dose.FC.LYZ.NS ([1]; primary screen, dose 0.08 uM) [log2 fold change] | Dose.FC.LYZ.NS ([1]; primary screen, dose 0.40 uM) [log2 fold change] | Dose.FC.LYZ.NS ([1]; primary screen, dose 2.00 uM) [log2 fold change] | Dose.FC.LYZ.NS ([1]; primary screen, dose 10.00 uM) [log2 fold change] | Dose.FC.CTG (ENR+CD organoids; primary screen, dose 0.08 uM) [log2 fold change] | Dose.FC.CTG (ENR+CD organoids; primary screen, dose 0.40 uM) [log2 fold change] | Dose.FC.CTG (ENR+CD organoids; primary screen, dose 2.00 uM) [log2 fold change] | Dose.FC.CTG (ENR+CD organoids; primary screen, dose 10.00 uM) [log2 fold change] | Dose.FC.LYZ.S ([2]; dose 0.08 uM) [log2 fold change] | Dose.FC.LYZ.S ([2]; dose 0.40 uM) [log2 fold change] | Dose.FC.LYZ.S ([2]; dose 2.00 uM) [log2 fold change] | Dose.FC.LYZ.S ([2]; dose 10.00 uM) [log2 fold change] | Z.LYZ.NS (standard z score) ([1]; primary screen, dose 0.08 uM) | Z.LYZ.NS (standard z score) ([1]; primary screen, dose 0.40 uM) | Z.LYZ.NS (standard z score) ([1]; primary screen, dose 2.00 uM) | Z.LYZ.NS (standard z score) ([1]; primary screen, dose 10.00 uM) | Z.CTG (standard z score) (ENR+CD organoids; primary screen, dose 0.08 uM) | Z.CTG (standard z score) (ENR+CD organoids; primary screen, dose 0.40 uM) | Z.CTG (standard z score) (ENR+CD organoids; primary screen, dose 2.00 uM) | Z.CTG (standard z score) (ENR+CD organoids; primary screen, dose 10.00 uM) | also measured |
| --- | --- | --- | --- | --- | --- | --- | --- | --- | --- | --- | --- | --- | --- | --- | --- | --- | --- | --- | --- | --- | --- |
| O=C(NC(NC(=S)Nc1ccc(F)c([N+](=O)[O-])c1)C(Cl)(Cl)Cl)C(c1ccccc1)c1ccccc1 (centres unmarked) [CGK733] | 0.099 | −0.026 | −0.099 | −0.122 | −0.362 | −0.093 | −0.244 | −0.478 | 0.008 | −0.018 | −0.125 | −0.230 | – | – | – | – | – | – | – | – | Z.LYZ.NS [1, 3]: 0.863; Z.LYZ.NS [1, 4]: −0.222; Z.LYZ.NS [1, 5]: −0.865; Z.LYZ.NS [1, 6]: −1.063; Z.CTG (ENR+CD organoids; [3]): −0.864; Z.CTG (ENR+CD organoids; [4]): −0.221; Z.CTG (ENR+CD organoids; [5]): −0.582; Z.CTG (ENR+CD organoids; [6]): −1.143 |
| Cc1ccc(NC(=O)C2(c3ccc4c(c3)OC(F)(F)O4)CC2)nc1-c1cccc(C(=O)O)c1 [VX-809 (Lumacaftor)] | 0.073 | −0.041 | −0.032 | −0.082 | 0.177 | −0.062 | −0.145 | 0.032 | 0.218 | −0.027 | −0.073 | −0.117 | 0.634 | −0.353 | −0.279 | −0.713 | 0.423 | −0.149 | −0.346 | 0.076 | – |
| Nc1nc(CC(=O)Nc2ccc(CCNC[C@H](O)c3ccccc3)cc2)cs1 [Mirabegron] | – | – | – | – | – | – | – | – | – | – | – | – | – | – | – | – | – | – | – | – | Z.LYZ.NS [1, 7]: 1.201; Z.LYZ.NS [1, 8]: −0.259; Z.LYZ.NS [1, 9]: −0.301; Z.LYZ.NS [1, 10]: 0.193; Dose.FC.LYZ.NS [1, 11]: 0.138 log2 fold change; Dose.FC.LYZ.NS [1, 12]: −0.030 log2 fold change; Dose.FC.LYZ.NS [1, 13]: −0.035 log2 fold change; Dose.FC.LYZ.NS [1, 14]: 0.022 log2 fold change; Dose.FC.CTG (ENR+CD organoids; [11]): 0.029 log2 fold change; Dose.FC.CTG (ENR+CD organoids; [12]): −0.335 log2 fold change; Dose.FC.CTG (ENR+CD organoids; [13]): 0.019 log2 fold change; Dose.FC.CTG (ENR+CD organoids; [14]): −0.051 log2 fold change; Dose.FC.LYZ.S ([2]; dose 0.08 uM, FC vs plate median): 0.148 log2 fold change; Dose.FC.LYZ.S [2, 15]: −0.016 log2 fold change; Dose.FC.LYZ.S [2, 16]: −0.049 log2 fold change; Dose.FC.LYZ.S [2, 17]: −0.010 log2 fold change |
| C[C@@H](c1ncncc1F)[C@](O)(Cn1cncn1)c1ccc(F)cc1F [Voriconazole] | 0.252 | 0.193 | 0.067 | 0.018 | 0.258 | 0.306 | 0.285 | 0.328 | 0.180 | 0.120 | 0.097 | 0.048 | 2.192 | 1.682 | 0.588 | 0.153 | – | – | – | – | – |
| CC1=C(C(=O)Nc2cc3cn[nH]c3cc2F)C(c2ccc(C(F)(F)F)cc2)CC(=O)N1 (centres unmarked) [GSK429286A] | – | – | – | – | – | – | – | – | – | – | – | – | 1.197 | 1.117 | 1.222 | 0.517 | 1.260 | 1.302 | 1.166 | 0.883 | Dose.FC.LYZ.NS (log2 fold change) ([1]; primary screen, dose 0.08 uM): 0.137; Dose.FC.LYZ.NS (log2 fold change) ([1]; primary screen, dose 0.40 uM): 0.128; Dose.FC.LYZ.NS (log2 fold change) ([1]; primary screen, dose 2.00 uM): 0.140; Dose.FC.LYZ.NS (log2 fold change) ([1]; primary screen, dose 10.00 uM): 0.059; Dose.FC.CTG (log2 fold change) (ENR+CD organoids; primary screen, dose 0.08 uM): 0.527; Dose.FC.CTG (log2 fold change) (ENR+CD organoids; primary screen, dose 0.40 uM): 0.545; Dose.FC.CTG (log2 fold change) (ENR+CD organoids; primary screen, dose 2.00 uM): 0.488; Dose.FC.CTG (log2 fold change) (ENR+CD organoids; primary screen, dose 10.00 uM): 0.370; Dose.FC.LYZ.S (log2 fold change) ([2]; dose 0.08 uM): 0.247; Dose.FC.LYZ.S (log2 fold change) ([2]; dose 0.40 uM): 0.283; Dose.FC.LYZ.S (log2 fold change) ([2]; dose 2.00 uM): 0.245; Dose.FC.LYZ.S (log2 fold change) ([2]; dose 10.00 uM): 0.099 |
| Cc1cc(SCc2sc(-c3ccc(C(F)(F)F)c(F)c3)nc2C)ccc1OCC(=O)O [GW0742] | – | – | – | – | – | – | – | – | – | – | – | – | 0.454 | 0.390 | 0.231 | −1.322 | −1.794 | −1.167 | −0.596 | −1.078 | Dose.FC.LYZ.NS (log2 fold change) ([1]; primary screen, dose 0.08 uM): 0.052; Dose.FC.LYZ.NS (log2 fold change) ([1]; primary screen, dose 0.40 uM): 0.045; Dose.FC.LYZ.NS (log2 fold change) ([1]; primary screen, dose 2.00 uM): 0.026; Dose.FC.LYZ.NS (log2 fold change) ([1]; primary screen, dose 10.00 uM): −0.152; Dose.FC.CTG (log2 fold change) (ENR+CD organoids; primary screen, dose 0.08 uM): −0.751; Dose.FC.CTG (log2 fold change) (ENR+CD organoids; primary screen, dose 0.40 uM): −0.489; Dose.FC.CTG (log2 fold change) (ENR+CD organoids; primary screen, dose 2.00 uM): −0.249; Dose.FC.CTG (log2 fold change) (ENR+CD organoids; primary screen, dose 10.00 uM): −0.451; Dose.FC.LYZ.S (log2 fold change) ([2]; dose 0.08 uM): 0.048; Dose.FC.LYZ.S (log2 fold change) ([2]; dose 0.40 uM): 0.106; Dose.FC.LYZ.S (log2 fold change) ([2]; dose 2.00 uM): 0.014; Dose.FC.LYZ.S (log2 fold change) ([2]; dose 10.00 uM): −0.183 |
| COc1cc2/c(=N/c3ccc(Br)cc3F)nc[nH]c2cc1OCC1CCN(C)CC1 [Vandetanib (ZD6474)] | −0.068 | −0.091 | −0.271 | −0.298 | −0.648 | −0.366 | −0.874 | −1.206 | −0.139 | −0.054 | −0.384 | −0.494 | −0.594 | −0.792 | −2.356 | −2.594 | −1.547 | −0.874 | −2.089 | −2.880 | – |
| CO[C@H]1C[C@@H]2CC[C@@H](C)[C@@](O)(O2)C(=O)C(=O)N2CCCC[C@H]2C(=O)O[C@H]([C@H](C)C[C@@H]2CC[C@@H](OC(=O)C(C)(CO)CO)[C@H](OC)C2)CC(=O)[C@H](C)/C=C(\C)[C@@H](O)[C@@H](OC)C(=O)[C@H](C)C[C@H](C)/C=C/C=C/C=C/1C [Temsirolimus (CCI-779, NSC 683864)] | – | 0.088 | 0.172 | 0.119 | – | 0.583 | 0.578 | 0.200 | – | 0.152 | 0.132 | 0.153 | – | 0.763 | 1.494 | 1.035 | – | 1.393 | 1.382 | 0.478 | Dose.FC.LYZ.NS [1, 18]: 0.091 log2 fold change; Z.LYZ.NS [1, 7]: 0.790; Dose.FC.CTG (ENR+CD organoids; [18]): 0.514 log2 fold change; Z.CTG (ENR+CD organoids; [7]): 1.228; Dose.FC.LYZ.S ([2]; dose 0.08 uM, FC relative to plate median): 0.082 log2 fold change |
| CN(Cc1cnc2nc(N)nc(N)c2n1)c1ccc(C(=O)N[C@@H](CCC(=O)O)C(=O)O)cc1 [Methotrexate] | – | – | – | – | – | – | – | – | – | – | – | – | −0.843 | – | – | – | – | – | – | – | Dose.FC.LYZ.NS (log2 fold change) ([1]; primary screen, dose 0.08 uM): −0.097; Z.LYZ.NS [1, 8]: −0.332; Z.LYZ.NS [1, 9]: −1.132; Z.LYZ.NS [1, 10]: −0.658; Dose.FC.LYZ.NS [1, 12]: −0.038 log2 fold change; Dose.FC.LYZ.NS [1, 13]: −0.130 log2 fold change; Dose.FC.LYZ.NS [1, 14]: −0.076 log2 fold change; Dose.FC.CTG (log2 fold change) (ENR+CD organoids; primary screen, dose 0.08 uM): −0.615; Dose.FC.CTG (ENR+CD organoids; [12]): −0.722 log2 fold change; Dose.FC.CTG (ENR+CD organoids; [13]): −0.701 log2 fold change; Dose.FC.CTG (ENR+CD organoids; [14]): −0.642 log2 fold change; Dose.FC.LYZ.S (log2 fold change) ([2]; dose 0.08 uM): −0.159; Dose.FC.LYZ.S [2, 15]: −0.129 log2 fold change; Dose.FC.LYZ.S [2, 16]: −0.177 log2 fold change; Dose.FC.LYZ.S [2, 17]: −0.156 log2 fold change |
| CNC(=O)c1cc(Oc2ccc(NC(=O)Nc3cc(C(C)(C)C)nn3-c3ccc4ncccc4c3)c(F)c2)ccn1 [DCC-2036 (Rebastinib)] | 0.259 | 0.128 | 0.073 | −0.209 | 0.216 | 0.218 | −0.038 | −0.322 | 0.358 | 0.186 | 0.054 | −0.244 | – | – | – | – | – | – | – | – | Z.LYZ.NS [1, 3]: 2.256; Z.LYZ.NS [1, 4]: 1.116; Z.LYZ.NS [1, 5]: 0.637; Z.LYZ.NS [1, 6]: −1.823; Z.CTG (ENR+CD organoids; [3]): 0.516; Z.CTG (ENR+CD organoids; [4]): 0.520; Z.CTG (ENR+CD organoids; [5]): −0.091; Z.CTG (ENR+CD organoids; [6]): −0.769 |
